Results reported in ChEMBL document CHEMBL1201862, “PubChem BioAssay data set” (2004).
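Dose response: 5 concentrations. Exposure: 48 h. Format: 96-well plates. Endpoint: linear interpolation; highest concentration if not reached. Abbreviation: GI50, concentration required for 50% inhibition of growth.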 Active and inactive are the calls of the source. Cut-off read from the data, not from the text of the source: active = GI50 up to about 1.1 µM and inactive = higher.

How the values were obtained:
Experiment in all cases: NCI tumour cell line growth inhibition, 48 h
ACHN = system: ACHN
BT-549 = system: BT-549
CCRF-CEM = system: CCRF-CEM
EKVX = system: EKVX
HCT-15 = system: HCT-15
HOP-62 = system: HOP-62
HOP-92 = system: HOP-92
Hs-578T = system: Hs-578T
MCF7 = system: MCF7
MDA-N = system: MDA-N
Malme-3M = system: Malme-3M
OVCAR-4 = system: OVCAR-4
RPMI-8226 = system: RPMI-8226
RXF 393 = system: RXF 393
SF-539 = system: SF-539
SK-MEL-2 = system: SK-MEL-2
SNB-19 = system: SNB-19
SR = system: SR
LOX IMVI = system: LOX IMVI

SMILES | GI50 (ACHN) | GI50 (BT-549) | GI50 (CCRF-CEM) | GI50 (EKVX) | GI50 (HCT-15) [µM] | GI50 (HOP-62) | GI50 (HOP-92) | GI50 (Hs-578T) | GI50 (MCF7) | GI50 (MDA-N) | GI50 (Malme-3M) | GI50 (OVCAR-4) | GI50 (RPMI-8226) | GI50 (RXF 393) | GI50 (SF-539) | GI50 (SK-MEL-2) | GI50 (SNB-19) | GI50 (SR) | GI50 (LOX IMVI)
COc1cc2c(cc1Cc1c(F)cccc1Cl)nc(-c1c(F)cccc1Cl)n2Cc1c(F)cccc1Cl | 31.8 µM (inactive) | 28.8 µM (inactive) | 2.1 µM (inactive) | 12.6 µM (inactive) | 62.7 | 36.1 µM (inactive) | 2.64 µM (inactive) | 21.3 µM (inactive) | 35.2 µM (inactive) | 20.6 µM (inactive) | 20 µM (inactive) | 18.6 µM (inactive) | 13.7 µM (inactive) | 77.3 µM (inactive) | 21 µM (inactive) | 12.6 µM (inactive) | 33.2 µM (inactive) | 26.7 µM (inactive) | –
Cc1cc2ccccc2n2c1nc1ccccc12 | > 100 µM (inactive) | > 100 µM (inactive) | > 100 µM (inactive) | > 100 µM (inactive) | > 100 | > 100 µM (inactive) | > 100 µM (inactive) | > 100 µM (inactive) | > 100 µM (inactive) | > 100 µM (inactive) | > 100 µM (inactive) | – | > 100 µM (inactive) | > 100 µM (inactive) | > 100 µM (inactive) | – | > 100 µM (inactive) | > 100 µM (inactive) | –
COCN1C(=O)[C@@H]2CCCN2C(=O)c2ccc(Cl)cc21 | > 100 µM (inactive) | > 100 µM (inactive) | – | > 100 µM (inactive) | > 100 | > 100 µM (inactive) | > 100 µM (inactive) | > 100 µM (inactive) | > 100 µM (inactive) | > 100 µM (inactive) | > 100 µM (inactive) | > 100 µM (inactive) | > 100 µM (inactive) | > 100 µM (inactive) | – | > 100 µM (inactive) | > 100 µM (inactive) | > 100 µM (inactive) | > 100 µM (inactive)
COc1ccc(/C=C(\C(=O)OCC(C)C)c2ccc(OC)c(OC)c2)cc1OC | > 100 µM (inactive) | > 100 µM (inactive) | > 100 µM (inactive) | > 100 µM (inactive) | > 100 | 74 µM (inactive) | > 100 µM (inactive) | > 100 µM (inactive) | > 100 µM (inactive) | > 100 µM (inactive) | – | > 100 µM (inactive) | > 100 µM (inactive) | > 100 µM (inactive) | > 100 µM (inactive) | > 100 µM (inactive) | > 100 µM (inactive) | > 100 µM (inactive) | 74.6 µM (inactive)
COc1cc(OC)cc(OCc2ccc3nc(-c4ccccc4)c(Cl)nc3c2)c1 | 17.7 µM (inactive) | 31.3 µM (inactive) | > 100 µM (inactive) | 27 µM (inactive) | > 100 | 16.7 µM (inactive) | 18.8 µM (inactive) | 27.3 µM (inactive) | 58.6 µM (inactive) | 44.1 µM (inactive) | 11 µM (inactive) | 24.1 µM (inactive) | 33.4 µM (inactive) | – | 18.4 µM (inactive) | 35.6 µM (inactive) | 25.9 µM (inactive) | 19.7 µM (inactive) | 43.1 µM (inactive)
CC(=O)OCC1OC(n2c(-c3ccc(C)cc3)cc(-c3ccccc3)c(C#N)c2=S)C(OC(C)=O)C(OC(C)=O)C1OC(C)=O (stereo not drawn) | > 100 µM (inactive) | > 100 µM (inactive) | – | > 100 µM (inactive) | > 100 | > 100 µM (inactive) | > 100 µM (inactive) | 65.2 µM (inactive) | > 100 µM (inactive) | > 100 µM (inactive) | > 100 µM (inactive) | 81.1 µM (inactive) | > 100 µM (inactive) | > 100 µM (inactive) | > 100 µM (inactive) | – | > 100 µM (inactive) | > 100 µM (inactive) | > 100 µM (inactive)
CC(C)(C)c1cc2c(O)c(c1)C(c1ccccc1)c1cc(C(C)(C)C)cc(c1O)Cc1cc(C(C)(C)C)cc(c1O)C(c1ccccc1)c1cc(C(C)(C)C)cc(c1O)C2 (stereo not drawn) | > 100 µM (inactive) | > 100 µM (inactive) | 44.9 µM (inactive) | > 100 µM (inactive) | > 100 | > 100 µM (inactive) | > 100 µM (inactive) | > 100 µM (inactive) | > 100 µM (inactive) | > 100 µM (inactive) | – | > 100 µM (inactive) | – | > 100 µM (inactive) | > 100 µM (inactive) | > 100 µM (inactive) | > 100 µM (inactive) | 62.7 µM (inactive) | > 100 µM (inactive)
Cc1ccc(S(=O)(=O)n2cc(C#N)c(C#N)c2)cc1 | 19.3 µM (inactive) | 20.6 µM (inactive) | 30.2 µM (inactive) | 30.2 µM (inactive) | 17.9 | 24.5 µM (inactive) | 31 µM (inactive) | 24.7 µM (inactive) | 22.3 µM (inactive) | 27.1 µM (inactive) | 15.6 µM (inactive) | 74 µM (inactive) | – | 32.3 µM (inactive) | 19.6 µM (inactive) | 24.3 µM (inactive) | > 10 µM (inactive) | 24.4 µM (inactive) | 22.8 µM (inactive)
Cc1cc2nc(N3C(=O)/C(=C/c4cccc([N+](=O)[O-])c4)N=C3c3ccccc3)sc2cc1C | 37 µM (inactive) | 32.4 µM (inactive) | 9.95 µM (inactive) | 18.8 µM (inactive) | 36.5 | 35.7 µM (inactive) | 6.7 µM (inactive) | 24.5 µM (inactive) | 16.1 µM (inactive) | 12.5 µM (inactive) | – | 25.8 µM (inactive) | 21.1 µM (inactive) | 15.6 µM (inactive) | 39.4 µM (inactive) | 23.1 µM (inactive) | 34.1 µM (inactive) | 14.9 µM (inactive) | 19.2 µM (inactive)
Cc1c(/N=N/c2ccccc2)c(-c2ccccc2)n(C2OC(CO)C(O)C(O)C2O)c(=S)c1C#N (stereo not drawn) | 3.95 µM (inactive) | 5.4 µM (inactive) | 2.32 µM (inactive) | 13.8 µM (inactive) | 5.01 | 7.14 µM (inactive) | – | 2.86 µM (inactive) | 4.74 µM (inactive) | 4.71 µM (inactive) | 6.67 µM (inactive) | 6.1 µM (inactive) | 4.06 µM (inactive) | 2.5 µM (inactive) | 5.13 µM (inactive) | 4.48 µM (inactive) | 7.64 µM (inactive) | > 100 µM (inactive) | 2.62 µM (inactive)
Fc1ccc(/C=C2\COCC3=C2NC(=S)NC3c2ccc(F)cc2)cc1 (stereo not drawn) | 37 µM (inactive) | 19 µM (inactive) | 19 µM (inactive) | 20 µM (inactive) | 15.7 | 17.6 µM (inactive) | 18.7 µM (inactive) | 24.8 µM (inactive) | 19.1 µM (inactive) | 17.6 µM (inactive) | – | 18.1 µM (inactive) | 16.5 µM (inactive) | 16.6 µM (inactive) | 20 µM (inactive) | 15 µM (inactive) | 23.6 µM (inactive) | 19 µM (inactive) | 19.9 µM (inactive)
